Assay [1] has as its target T1, SFRP-1 (Homo sapiens, UniProt Q8N474).
T1 sequence (Q8N474 32-314): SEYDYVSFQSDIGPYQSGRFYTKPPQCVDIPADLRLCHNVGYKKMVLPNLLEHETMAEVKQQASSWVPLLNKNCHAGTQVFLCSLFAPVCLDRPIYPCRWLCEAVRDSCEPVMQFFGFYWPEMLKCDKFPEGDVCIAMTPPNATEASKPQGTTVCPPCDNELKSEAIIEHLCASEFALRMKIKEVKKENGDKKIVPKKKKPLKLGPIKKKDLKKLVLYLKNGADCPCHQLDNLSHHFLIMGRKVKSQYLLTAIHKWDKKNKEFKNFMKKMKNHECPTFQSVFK
Briefly: Fluorescence polarization binding assay (competitive displacement of a probe compound from SFRP-1).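 Note: test compound competes with a fluorescent probe held by SFRP-1, seen as a drop in probe anisotropy after incubation in darkness, with anisotropy as function of rising compound dose.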 The settings on record: fluorescence anisotropy, 45 nM SFRP-1, 20 nM probe.

For assay [2], the target named is T1, SFRP-1. Briefly: Cell-based assay for in vitro measurement of SFRP-1/SARP2 antagonist activity (U2OS cells co-transfected with 16x TCF-tk-Luciferase reporter, Wnt and hSFRP-1).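 For all read-outs here: U2OS cells co-transfected with a TCF-tk luciferase reporter, a Wnt vector, hSFRP-1 or empty vector and CMV-βgal, luciferase luminescence read in cell lysates alongside βgal activity.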 The note with it: for fold induction at 10 µM: U2OS, read-out: Fold Induction with SFRP-1, U2OS cells, single dose 10 μM, luciferase reporter, fold induction over SFRP-1 control.

With `O=S(=O)(NC1Cc2ccccc2C1O)c1cc(S(=O)(=O)c2ccccc2)ccc1C(F)(F)F` (stereo not shown) [Example 900, N-(1-hydroxy-2,3-dihydro-1H-inden-2-yl)-5-(phenylsulfonyl)-2-(trifluoromethyl)benzenesulfonamide], the concentration for half-maximal inhibition (IC50) at SFRP-1 [1] was found to be 80 nM. For the same compound, the fold induction at 10 µM on SFRP-1 [2] is 4.1.
In the case of `CC(C)(C)OC(=O)N[C@H]1CC[C@H](NS(=O)(=O)c2cc(S(=O)(=O)c3ccccc3)ccc2C(F)(F)F)CC1` [Example 901, tert-butyl [trans-4-({[5-(phenylsulfonyl)-2-(trifluoromethyl)phenyl]sulfonyl}amino)cyclohexyl]carbamate], the IC50 at SFRP-1 [1] is 450 nM. For the same compound, on SFRP-1 [2], it took 224 nM to reach a half-maximal effect (EC50) and the fold induction at 10 µM stood at 3.4.
Taken in the same sequence, the figures for `O=C(O)CCC(=O)N1CCC(CNS(=O)(=O)c2cc(S(=O)(=O)c3ccccc3)ccc2C(F)(F)F)CC1` [Example 902, 4-oxo-4-{4-[({[5-(phenylsulfonyl)-2-(trifluoromethyl)phenyl]sulfonyl}amino)methyl]piperidin-1-yl}butanoic acid] were 180 nM, 636 nM and 3.
`O=C(O)CCCC(=O)N1CCC(CNS(=O)(=O)c2cc(S(=O)(=O)c3ccccc3)ccc2C(F)(F)F)CC1` [Example 903, 5-oxo-5-{4-[({[5-(phenylsulfonyl)-2-(trifluoromethyl)phenyl]sulfonyl}amino)methyl]piperidin-1-yl}pentanoic acid] registered a half-inhibitory concentration (IC50) at SFRP-1 [1] of 70 nM. In addition, on SFRP-1 [2], the EC50 worked out at 795 nM and the fold induction at 10 µM turned out to be 3.5.
Regarding `O=C(O)c1cccc(S(=O)(=O)N2CCC(CNS(=O)(=O)c3cc(S(=O)(=O)c4ccccc4)ccc3C(F)(F)F)CC2)c1` [Example 904, 3-({4-[({[5-(phenylsulfonyl)-2-(trifluoromethyl)phenyl]sulfonyl}amino)methyl]piperidin-1-yl}sulfonyl)benzoic acid], on SFRP-1 [1], the IC50 came out at 60 nM. Moreover, on SFRP-1 [2], the half-maximal effective concentration (EC50) was found to be 700 nM and the fold induction at 10 µM came to 3.5.
For `CN(CCO)CCNS(=O)(=O)c1cc(S(=O)(=O)c2ccccc2)ccc1C(F)(F)F` [Example 905, N-{2-[(2-hydroxyethyl)(methyl)amino]ethyl}-5-(phenylsulfonyl)-2-(trifluoromethyl)benzenesulfonamide], in that order: 2600 nM, 3660 nM and 1.5.
`COC(=O)CN(C)CCNS(=O)(=O)c1cc(S(=O)(=O)c2ccccc2)ccc1C(F)(F)F` [Example 906, methyl N-methyl-N-[2-({[5-(phenylsulfonyl)-2-(trifluoromethyl)phenyl]sulfonyl}amino)ethyl]glycinate] yielded a concentration for half-maximal inhibition (IC50) on SFRP-1 [1] of 900 nM. On SFRP-1 [2], the EC50 was 1340 nM and the fold induction at 10 µM is 2.9.
In turn, `CCOC(=O)CCN(C)CCNS(=O)(=O)c1cc(S(=O)(=O)c2ccccc2)ccc1C(F)(F)F` [Example 907, ethyl N-methyl-N-[2-({[5-(phenylsulfonyl)-2-(trifluoromethyl)phenyl]sulfonyl}amino)ethyl]-β-alaninate] yielded a half-maximal inhibitory concentration (IC50) at SFRP-1 [1] of 900 nM. Further, the fold induction at 10 µM on SFRP-1 [2] came to 2.2.
On to `CCc1ccc(S(=O)(=O)c2ccccc2)cc1S(=O)(=O)NC1CCN(C(=O)OC(C)(C)C)CC1` [Example 909, tert-butyl 4-({[2-ethyl-5-(phenylsulfonyl)phenyl]sulfonyl}amino)piperidine-1-carboxylate], for which the concentration for half-maximal inhibition (IC50) on SFRP-1 [1] was found to be 1000 nM. Also, on SFRP-1 [2], the midpoint of the response, the EC50, lay at 2580 nM and the fold induction at 10 µM is 2.3.
For `Cc1cc(C)c(S(=O)(=O)c2ccccc2)cc1S(=O)(=O)NC1CCN(C(=O)OC(C)(C)C)CC1` [Example 911, tert-butyl 4-({[2,4-dimethyl-5-(phenylsulfonyl)phenyl]sulfonyl}amino)piperidine-1-carboxylate], in that order: 4000 nM, 2420 nM and 1.9.

These data come from patent US20060276464A1, “Diarylsulfone sulfonamides and use thereof” (Wyeth, priority 2005, published 2006).
